# Experimental data: article PMC9043238, “Evaluation of Potential DnaK Modulating Proline-Rich Antimicrobial Peptides Identified by Computational Screening” (Frontiers in Chemistry, 2022)
# Entries after “also recorded” stand apart in the source; their conditions may differ.
# How the values were obtained:
# DnaK [1] = conditions: peptide 300 µM; 0.3 µM DnaK; 20 mM TRIS, 150 mM KCl, 5 mM MgCl2, 1 mM ATP, pH 7.5; 1 h at 37°C; Malachite Green, A620; result in words (Figure 1)
# Protocol: Peptides were assessed for their capacity to inhibit the ATPase activity of DnaK by a colorimetric assay. Peptide at 300 µM concentration were assayed in 100 µl format where each reaction contained 0.3 µM of DnaK in DnaK assay buffer (20 mM TRIS, 150 mM KCl, 5 mM MgCl2, 1 mM ATP, pH 7.5). After 60 min, 20 µl samples were taken (3 x per reaction) for assessment by Malachite Green Phosphate assay kit (Sigma—MAK307). The samples were added to 80 µl of Milli-Q water in a 96 well plate, before adding 20 µl of staining solution, and incubated at room temperature for 30 min before measuring A620 on a plate reader ([Zahn et al., 2013]). A negative control was included for each peptide where the same assay conditions are used in the absence of DnaK. The relative activity of DnaK in the presence of each of the putative DnaK binding peptides was assessed using the following equation: DnaKacitivity %= (OD620 sample−OD620 negative control)/(OD620 positive control−OD620 negative control) × 100
# We selected four potential PrAMPs from the list of newly identified PrAMPs for evaluation. […] Each was chemically synthesized, purified, and exchanged into HCl salt prior to investigation of antimicrobial properties (Supplementary Information, Supplementary Figure S1). The ability of the potential PrAMPs to modulate the activity of DnaK was assessed at 300 µM in vitro through a colorimetric assay with a known binder of DnaK, oncocin, as a positive control peptide (Figure 1).
# Each was incubated with DnaK for 1 h at 37°C and the free phosphate generated was detected with a Malachite Green-based stain. Activities are reported in % activity relative to DnaK positive and DnaK negative samples with constraints at 0% activity. All peptides were assayed at 300 µM. One-way ANOVA followed by Dunnett’s multiple comparisons test was performed to compare the control (DnaK) to each of the peptides, p < 0.05 (*) and p < 0.001 (**) are indicated.
# [2] = system: Escherichia coli ATCC 25922 and E. coli BAA 3051; experiment: Antibacterial MIC assay, E. coli; format: cell-based; conditions: MHB, serial dilution up to 128 µM, 6 h growth, OD read-out, MIC = concentration at which growth surpassed 10%; result in words
# Protocol: (§1) For the antimicrobial assays, the strains used were as follows: Staphylococcus aureus ATCC 29213, Escherichia coli ATCC 25922 and E. coli BAA 3051.
# (§2) Peptides were assessed for their MIC against various bacterial strains. Peptides were serially diluted at two x final concentration across a 96 well plate with the final well containing no peptide and control lanes of no antibacterial agent, and lanes of no bacteria or antibacterial agent. All dilutions were in sterile MHB. Each bacterial strain was grown overnight before inoculation of a fresh culture in the morning of assay, the culture was allowed to grow until OD600 = ∼1.0 before dilution to achieve 2 × 10^6 CFU/ml based of the equations 2e+7e^(2.9218∗OD600) for E. coli and 2e+7e^(2.5537∗OD600). Bacteria were added 1:1 to wells containing the serially diluted peptide(s) and were allowed to grow for 6 h, in regards to E. coli, or 24 h, in regards to S. aureus, before measuring OD620 on a plate reader. Bacterial growth per well was determined using the following equation: Bacterial growth %= (OD600 sample−OD600 negative control)/(OD600 positive control−OD600 negative control)×100
# (§3) The MIC breakpoint was determined using GraphPad PRISM observing for the concentration at which growth surpassed 10%.
# FIGURE 2 Minimum inhibitory concentration of potential PrAMPs. Each of the potential PrAMPs were assayed for MIC against E. coli ATCC 25922 (A), E. coli BACC 3051 (B), and S. aureus 29213 (C), up to 128 µM in MHB media.
# [3] = system: Staphylococcus aureus ATCC 29213; experiment: Antibacterial MIC assay, S. aureus; format: cell-based; conditions: MHB, up to 128 µM, 24 h growth, OD read-out; result in words
# Protocol: as §1, §2, §3
# FIGURE 2 Minimum inhibitory concentration of potential PrAMPs. […]
# E. coli ATCC 25922 = experiment: MIC of peptide combinations (synergy); format: cell-based, Escherichia coli; conditions: equimolar combination with oncocin or P9, Figure 3
# Protocol: as §2, §3
# One potential reason is that these peptides are unable to access the cytoplasm of the cell. Consequently, the synergistic capacity of PP30, attacin-C, and antibacterial napin with oncocin or P9 was examined (Figure 3).
# (A) MIC assessment of oncocin with/without antibacterial napin/PP30/attacin-C. (B) MIC assessment of P9 with/without antibacterial napin/PP30/attacin-C. Each peptide is present in equimolar concentration with the individual concentration shown in the X axis.
# Bacillus subtilis = conditions: Gram-positive bacterium; ref Ngai and Ng, 2004; cited from earlier work
# Protocol: (§4) It is interesting to note that the peptides tested which inhibit DnaK are in fact not antimicrobial at concentrations of 128 µM or less. This may be because the peptides act in vivo as part of a complex multi-peptide cocktail with synergistic effects.
# E. coli = conditions: Gram-negative bacterium; ref Ngai and Ng, 2004; cited from earlier work
# Protocol: as §4
# DnaK [4] = conditions: ref Krizsan et al., 2014; cited from earlier work
# From the text: Recently, we assessed a new set of criteria for PrAMPs and scanned the DRAMP database (http://dramp.cpu-bioinfor.org/) to detect novel PrAMPs based on similarity to known DnaK inhibitors ([Welch et al., 2020]). […] Here, we undertook screening of these putative new ...
# bacterial membrane = conditions: ref Shen et al., 2010; cited from earlier work
# From the text: This dual mode of action of PP30, membrane lysis and DnaK […], is novel and unreported for other native PrAMPs.
Sequence,"Effect on DnaK activity (ATP hydrolysis), % activity relative to DnaK positive and negative samples (DnaK [1])",Antimicrobial activity (MIC assessment) against E. coli [2],Antimicrobial activity (MIC assessment) against S. aureus [3],Synergy in combination treatment (MIC) (E. coli ATCC 25922),Activity against Bacillus subtilis (Bacillus subtilis),Activity against E. coli (E. coli),DnaK binding (DnaK [4]),Membrane-lytic action (bacterial membrane)
"PAQPFRFPKHPQGPQTRPPI [Antibacterial napin, predicted PrAMP from the DRAMP database, chemically synthesized 20-residue peptide]",inhibit DnaK activity,inactive; also recorded: lack of direct antimicrobial activity,inactive,no synergistic effects,active,inactive,,
"QRPYTQPLIYYPPPPTPPRIYRA [Attacin-C, predicted PrAMP from the DRAMP database, chemically synthesized 23-residue peptide]",inhibit DnaK activity,lack of direct antimicrobial activity,,no synergistic effects,,,,
"RFIPPILRPPVRPPFRPPFRPPFRPPPIIRFFGG [P9, predicted PrAMP from the DRAMP database, chemically synthesized 34-residue peptide]",increases the ATP hydrolysis of DnaK,potent antimicrobial activity,,,,,,
VDKPPYLPRPRPPRRIYNR [Oncocin],,,,,,,DnaK binder,
"YVPPVQKPHPNGPKFPTFP [PP30, predicted PrAMP from the DRAMP database, chemically synthesized 19-residue peptide]",inhibit DnaK activity,has not however resulted in observable MICs; also recorded: lack of direct antimicrobial activity,,no synergistic effects,,,,membrane-lytic
